Source: patent US10689362B2, “Quinoxaline compounds as type III receptor tyrosine kinase inhibitors” (Development Center for Biotechnology, priority 2016, dated 2020)

Experiments:
c-KIT kinase = c-KIT kinase (Homo sapiens (Human), UniProt P10721); test: c-KIT kinase assay (radiometric); type: biochemical
Outline: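 Recombinant c-Kit (20 ng) with 2 μg Poly-(Glu4:Tyr1) in MOPS pH 7.0 buffer with MgCl2/MnCl2, 10 μM ATP plus [^33P]-ATP, 4% DMSO final, 60 min at 30° C. Stopped with phosphoric acid, filter-captured and scintillation counted; IC50 from curve fit.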

PDGFRβ kinase = PDGFRβ kinase (Homo sapiens (Human), UniProt P09619); test: PDGFRβ kinase assay (radiometric); type: biochemical
Chain of PDGFRβ kinase (P09619 33-1106): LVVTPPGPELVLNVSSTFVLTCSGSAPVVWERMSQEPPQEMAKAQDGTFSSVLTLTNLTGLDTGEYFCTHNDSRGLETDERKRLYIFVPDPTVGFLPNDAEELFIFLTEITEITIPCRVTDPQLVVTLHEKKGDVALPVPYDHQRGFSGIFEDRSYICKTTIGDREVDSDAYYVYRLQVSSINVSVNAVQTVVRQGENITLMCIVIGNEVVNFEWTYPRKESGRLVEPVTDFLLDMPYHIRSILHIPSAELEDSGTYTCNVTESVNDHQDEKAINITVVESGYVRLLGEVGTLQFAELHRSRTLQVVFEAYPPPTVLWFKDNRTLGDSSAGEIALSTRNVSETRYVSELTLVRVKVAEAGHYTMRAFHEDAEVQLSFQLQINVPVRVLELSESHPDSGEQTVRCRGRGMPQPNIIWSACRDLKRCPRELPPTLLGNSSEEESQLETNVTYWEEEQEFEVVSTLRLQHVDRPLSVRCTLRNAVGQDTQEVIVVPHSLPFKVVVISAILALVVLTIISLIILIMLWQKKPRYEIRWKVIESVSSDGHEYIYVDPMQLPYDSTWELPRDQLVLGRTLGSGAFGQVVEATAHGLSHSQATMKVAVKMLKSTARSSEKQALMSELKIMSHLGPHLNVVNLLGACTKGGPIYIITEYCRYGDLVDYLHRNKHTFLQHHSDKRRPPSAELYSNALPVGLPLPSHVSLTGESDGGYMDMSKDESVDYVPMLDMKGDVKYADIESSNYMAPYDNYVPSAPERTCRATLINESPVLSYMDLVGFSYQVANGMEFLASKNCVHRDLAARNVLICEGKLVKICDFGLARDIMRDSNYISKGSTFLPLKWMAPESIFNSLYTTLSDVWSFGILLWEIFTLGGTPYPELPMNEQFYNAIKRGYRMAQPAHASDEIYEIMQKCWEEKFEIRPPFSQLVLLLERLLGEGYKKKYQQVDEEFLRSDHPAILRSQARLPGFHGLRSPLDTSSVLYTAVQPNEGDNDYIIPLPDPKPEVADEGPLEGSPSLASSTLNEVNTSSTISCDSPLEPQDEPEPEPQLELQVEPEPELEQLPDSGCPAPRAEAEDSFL
Outline: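 Radiometric assay: recombinant PDGFRβ with poly(Glu4:Tyr1) in MOPS pH 7.0 buffer containing Mg2+/Mn2+, 10 μM ATP plus [33P]-ATP, and compound at 4% DMSO final. Incubated 60 min at 30° C, stopped with phosphoric acid, filter-captured and scintillation-counted. IC50 from curve fitting.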

[1] = tested on: Kasumi-1 human acute myeloid leukemia cell with c-KIT N822K activating mutation; test: Kasumi-1 cell proliferation assay (CellTiter-96); type: cell-based; details: Cytotoxicity, Kasumi-1 cells, 72 hours
Outline: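 After 72 h of treatment with a compound dilution series, growth of c-KIT N822K-driven Kasumi-1 cells (64000 per well, plated the day before) was read as 490 nm absorbance. This followed a 4 h incubation with CellTiter96 AQueous One reagent.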

[2] = tested on: THP-1 human acute monocytic leukemia cell harboring NRAS G12D mutation; test: THP-1 cell proliferation assay (counter screen, CellTiter-96); type: cell-based; details: Cytotoxicity, THP-1 cells (counter screen), 72 hours
Outline: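 Growth inhibition read as 490 nm absorbance after 4 h with CellTiter96 AQueous One reagent, following 72 h compound exposure at rising concentrations. THP-1 (NRAS G12D) cells plated at 5000 per well and left overnight at 37 °C, 5% CO2 before dosing.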

[3] = tested on: osteoclast precursors (osteoclast differentiation); test: Osteoclast tartrate-resistant acid phosphatase assay; type: cell-based; details: 168 h, at 1 μM treatment, 7 days, RANKL and M-CSF, read-out: inhibition activity against osteoclast differentiation
Outline: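 Differentiation inhibition was scored at 1 μM compound in duplicate, using supernatant TRAP activity read at 550 nm with an acid phosphatase kit.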

FLT3 kinase = FLT3 kinase (Homo sapiens (Human), UniProt P36888); test: FLT3 kinase assay (radiometric); type: biochemical
Chain of FLT3 kinase (P36888 27-993): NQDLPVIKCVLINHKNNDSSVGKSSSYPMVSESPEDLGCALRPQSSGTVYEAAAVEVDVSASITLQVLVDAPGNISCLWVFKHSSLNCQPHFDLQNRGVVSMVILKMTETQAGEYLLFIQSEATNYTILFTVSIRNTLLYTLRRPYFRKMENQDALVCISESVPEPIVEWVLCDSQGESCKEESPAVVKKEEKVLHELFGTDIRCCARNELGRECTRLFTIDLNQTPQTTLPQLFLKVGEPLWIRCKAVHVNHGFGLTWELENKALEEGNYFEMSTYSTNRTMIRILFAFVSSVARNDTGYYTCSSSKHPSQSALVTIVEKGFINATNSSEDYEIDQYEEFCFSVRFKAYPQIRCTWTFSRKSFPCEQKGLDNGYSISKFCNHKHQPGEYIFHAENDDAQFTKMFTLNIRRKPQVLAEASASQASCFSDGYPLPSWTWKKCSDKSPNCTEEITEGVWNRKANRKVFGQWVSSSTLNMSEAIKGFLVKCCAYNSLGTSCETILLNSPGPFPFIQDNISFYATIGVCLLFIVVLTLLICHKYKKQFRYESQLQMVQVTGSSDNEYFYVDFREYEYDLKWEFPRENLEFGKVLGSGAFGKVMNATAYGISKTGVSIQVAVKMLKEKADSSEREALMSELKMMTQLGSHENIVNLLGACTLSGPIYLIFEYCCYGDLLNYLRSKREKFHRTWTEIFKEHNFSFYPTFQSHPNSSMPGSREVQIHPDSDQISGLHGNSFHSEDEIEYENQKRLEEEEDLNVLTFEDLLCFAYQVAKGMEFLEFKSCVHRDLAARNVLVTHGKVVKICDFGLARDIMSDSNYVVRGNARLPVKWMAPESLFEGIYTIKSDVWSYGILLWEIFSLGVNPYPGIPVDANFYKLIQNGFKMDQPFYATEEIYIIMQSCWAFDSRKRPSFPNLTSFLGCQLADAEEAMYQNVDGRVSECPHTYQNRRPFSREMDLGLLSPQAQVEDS
Outline: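 Recombinant FLT3 (5 ng) phosphorylating poly(Glu4:Tyr1) (2 μg) with 10 μM ATP plus [^33P]-ATP in MOPS pH 7.0 buffer, 4% DMSO final, 60 min at 30° C. Reaction stopped with phosphoric acid, filter-captured and scintillation-counted; IC50 derived from dose-response.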

[4] = tested on: CSF-1-dependent M-NFS-60 mouse myeloid leukemia cell; test: M-NFS-60 cell proliferation assay (CellTiter-96); type: cell-based; details: Cytotoxicity, M-NFS-60 cells, 72 hours
Outline: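 Growth inhibition was measured as absorbance at 490 nm after 4 h with CellTiter 96 AQueous One reagent. Beforehand, M-NFS-60 cells (2000/well, CSF-1-dependent) were treated with a compound dilution series for 72 h following overnight plating at 37 °C, 5% CO2.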

[5] = tested on: MV4-11 human acute myeloid leukemia cell with FLT3-ITD mutation; test: MV4-11 cell proliferation assay (CellTiter-96); type: cell-based; details: Cytotoxicity, MV4-11 cells, 72 hours
Outline: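 Growth inhibition read as absorbance at 490 nm after 4 hours with CellTiter96 AQueous One reagent. Before that, FLT3-ITD-dependent MV4-11 cells (6500 cells/well, overnight at 37° C., 5% CO2) received a rising compound concentration series for 72 hours.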

CSF-1R kinase = CSF-1R kinase (Homo sapiens (Human), UniProt P07333); test: CSF-1R kinase assay (AlphaScreen); type: biochemical; details: class symbol
Chain of CSF-1R kinase (P07333 20-972): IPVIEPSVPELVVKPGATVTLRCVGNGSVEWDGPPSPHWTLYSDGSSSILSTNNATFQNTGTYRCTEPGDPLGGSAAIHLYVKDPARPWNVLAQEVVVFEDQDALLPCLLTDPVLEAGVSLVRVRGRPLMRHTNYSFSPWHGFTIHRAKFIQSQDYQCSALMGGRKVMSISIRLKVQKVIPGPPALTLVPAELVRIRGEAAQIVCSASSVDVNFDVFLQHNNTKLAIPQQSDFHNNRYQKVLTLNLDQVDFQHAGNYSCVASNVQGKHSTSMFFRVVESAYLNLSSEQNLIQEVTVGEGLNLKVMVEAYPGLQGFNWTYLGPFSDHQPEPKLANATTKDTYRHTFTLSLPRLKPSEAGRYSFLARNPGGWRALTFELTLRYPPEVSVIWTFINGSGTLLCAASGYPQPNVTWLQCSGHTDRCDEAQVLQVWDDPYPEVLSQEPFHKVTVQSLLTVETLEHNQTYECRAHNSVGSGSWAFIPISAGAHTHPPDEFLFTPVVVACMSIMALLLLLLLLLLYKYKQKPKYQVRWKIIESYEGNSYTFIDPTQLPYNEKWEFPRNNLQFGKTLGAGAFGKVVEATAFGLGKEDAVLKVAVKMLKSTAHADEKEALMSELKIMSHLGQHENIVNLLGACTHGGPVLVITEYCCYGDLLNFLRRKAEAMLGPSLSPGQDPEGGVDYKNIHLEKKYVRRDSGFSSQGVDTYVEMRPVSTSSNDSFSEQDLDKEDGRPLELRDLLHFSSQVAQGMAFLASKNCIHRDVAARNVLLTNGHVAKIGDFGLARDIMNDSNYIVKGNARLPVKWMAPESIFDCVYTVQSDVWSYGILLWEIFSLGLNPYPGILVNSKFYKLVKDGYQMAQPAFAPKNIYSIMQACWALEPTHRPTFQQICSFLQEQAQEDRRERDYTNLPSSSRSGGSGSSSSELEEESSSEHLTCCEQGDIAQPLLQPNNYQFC
Experimental: Inhibition of CSF-1R kinase activity by a test compound disclosed herein was estimated by AlphaScreen (PerkinElmer). […] Reactions were incubated at 30° C. for 45 min and stopped by adding 5 μL of 50 mM EDTA. Analysis of resulting product using an AlphaScreen kit, and counted with Enspire Alpha (PerkinElmer). […] The IC50 values of quinoxaline compounds of this invention against CSF-1R kinase were determined using the GraphPad Prism 5 software.

Chain of c-KIT kinase (P10721 26-976): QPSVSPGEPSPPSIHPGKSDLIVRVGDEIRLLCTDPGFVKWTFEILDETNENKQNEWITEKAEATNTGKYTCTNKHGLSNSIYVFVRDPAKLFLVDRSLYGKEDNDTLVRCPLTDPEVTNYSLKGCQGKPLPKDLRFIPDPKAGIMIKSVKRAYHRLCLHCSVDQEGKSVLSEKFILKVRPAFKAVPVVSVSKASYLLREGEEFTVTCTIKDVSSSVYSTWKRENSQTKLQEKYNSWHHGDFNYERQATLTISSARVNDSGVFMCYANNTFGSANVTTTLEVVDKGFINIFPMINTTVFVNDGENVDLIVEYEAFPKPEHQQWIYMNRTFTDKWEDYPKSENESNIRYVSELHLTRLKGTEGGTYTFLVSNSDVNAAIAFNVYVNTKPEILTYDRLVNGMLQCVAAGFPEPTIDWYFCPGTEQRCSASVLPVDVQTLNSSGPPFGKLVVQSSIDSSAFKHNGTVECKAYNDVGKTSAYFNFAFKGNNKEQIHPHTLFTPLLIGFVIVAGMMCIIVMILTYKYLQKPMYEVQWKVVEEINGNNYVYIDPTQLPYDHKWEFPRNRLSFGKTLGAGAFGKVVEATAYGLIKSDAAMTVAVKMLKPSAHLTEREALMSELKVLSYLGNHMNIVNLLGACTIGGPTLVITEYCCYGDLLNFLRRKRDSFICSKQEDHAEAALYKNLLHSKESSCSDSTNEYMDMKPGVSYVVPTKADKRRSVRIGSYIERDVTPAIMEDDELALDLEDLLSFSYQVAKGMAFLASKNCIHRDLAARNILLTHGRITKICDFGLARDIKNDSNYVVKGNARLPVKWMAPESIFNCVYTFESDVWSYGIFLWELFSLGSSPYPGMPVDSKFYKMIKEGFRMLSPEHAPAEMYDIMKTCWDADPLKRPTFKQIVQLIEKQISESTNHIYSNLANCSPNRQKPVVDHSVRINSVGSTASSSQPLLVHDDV

Row | Structure (SMILES) | IC50 (c-KIT kinase; class symbol) [µM] | IC50 (PDGFRβ kinase; class symbol) [µM] | IC50 (CSF-1R kinase) [µM] | IC50 (PDGFRβ kinase; bound) [µM] | IC50 (FLT3 kinase; bound) [µM] | IC50 (c-KIT kinase; bound) [µM] | IC50 [1] [µM] | IC50 [2] [µM] | inhibition at 1 µM [3] [%] | IC50 (FLT3 kinase; class symbol) [µM] | IC50 [4] [µM] | IC50 [5] [µM]
1 | COc1ccc(COc2ccc(Nc3ccc4ncc(N5CCOCC5)nc4c3C#N)cc2)cc1 [Example 38, 6-((4-((4-methoxybenzyl)oxy)phenyl)amino)-3-morpholinoquinoxaline-5-carbonitrile] | < 0.1 | 0.1 to 0.3 | < 0.1 |  |  |  | 0.3 to 1 | > 10 | > 50 | 0.1 to 0.3 | < 0.3 | < 0.3
2 | COc1ccc(COc2ccc(Nc3ccc4ncc(N5CCOCC5)nc4c3C#N)cn2)cc1 [Example 52, 6-((6-((4-methoxybenzyl)oxy)pyridin-3-yl)amino)-3-morpholinoquinoxaline-5-carbonitrile] | 0.1 to 0.3 |  | < 0.1 | > 1 |  |  | 0.3 to 1 | > 10 | > 50 | 0.3 to 1 | 0.3 to 1 | < 0.3
3 | COc1ccc(COc2ccc(Nc3ccc4ncc(N5CCOCC5)nc4c3C#N)cc2OC)cc1 [Example 16, 6-((3-methoxy-4-((4-methoxybenzyl)oxy)phenyl)amino)-3-morpholinoquinoxaline-5-carbonitrile] | < 0.1 |  | < 0.1 | > 1 | > 1 |  | < 0.3 | > 10 | > 50 |  | < 0.3 | > 10
4 | COc1ccc(COc2ncc(Nc3ccc4ncc(N5CCOCC5)nc4c3C#N)cc2OC)cc1 [Example 37, 6-((5-methoxy-6-((4-methoxybenzyl)oxy)pyridin-3-yl)amino)-3-morpholinoquinoxaline-5-carbonitrile] |  |  | < 0.1 | > 1 | > 1 | > 1 | > 10 | > 10 | > 50 |  | < 0.3 | > 10
5 | COc1ccc(COc2ccc(Nc3ccc4ncc(N5CCC(N(C)C)CC5)nc4c3C#N)cc2OC)cc1F [Example 85, 3-(4-(dimethylamino)piperidin-1-yl)-6-((4-((3-fluoro-4-methoxy-benzyl)oxy)-3-methoxyphenyl)amino)quinoxaline-5-carbonitrile] | < 0.1 |  | < 0.1 | > 1 | > 1 |  | < 0.3 | 1 to 10 | > 50 |  | < 0.3 | 1 to 10
6 | COc1cc(Nc2ccc3ncc(N4CCN(C)CC4)nc3c2C#N)ccc1OCc1cccc(C#N)c1 [Example 78, 6-((4-((3-cyanobenzyl)oxy)-3-methoxyphenyl)amino)-3-(4-methylpiperazin-1-yl)quinoxaline-5-carbonitrile] | 0.1 to 0.3 |  | < 0.1 | > 1 | > 1 |  | 0.3 to 1 | > 10 | > 50 |  | < 0.3 | > 10
7 | COc1cc(Nc2ccc3ncc(N4CCOCC4)nc3c2C#N)ccc1OCc1ccc(OC(F)(F)F)cc1 [Example 32, 6-((3-methoxy-4-((4-(trifluoromethoxy)benzyl)oxy)phenyl)amino)-3-morpholinoquinoxaline-5-carbonitrile] | < 0.1 | 0.1 to 0.3 | < 0.1 |  | > 1 |  | 0.3 to 1 | > 10 | > 50 |  | < 0.3 | 1 to 10
8 | CCOc1ccc(COc2ccc(Nc3ccc4ncc(N5CCOCC5)nc4c3C#N)cc2OC)cc1 [Example 35, 6-((4-((4-ethoxybenzyl)oxy)-3-methoxyphenyl)amino)-3-morpholinoquinoxaline-5-carbonitrile] | < 0.1 | 0.3 to 1 | < 0.1 |  | > 1 |  | < 0.3 | > 10 | > 50 |  | < 0.3 | 1 to 10

Continued, in another order:

Row | IC50 (c-KIT kinase; class symbol) [µM] | IC50 (PDGFRβ kinase; class symbol) [µM] | IC50 (CSF-1R kinase) [µM] | IC50 (PDGFRβ kinase; bound) [µM] | IC50 (FLT3 kinase; bound) [µM] | IC50 (c-KIT kinase; bound) [µM] | Structure (SMILES) | IC50 [1] [µM] | IC50 [2] [µM] | inhibition at 1 µM [3] [%] | IC50 (FLT3 kinase; class symbol) [µM] | IC50 [4] [µM] | IC50 [5] [µM]
9 | 0.3 to 1 |  | < 0.1 | > 1 | > 1 |  | COc1ccc(COc2ccc(Nc3ccc4ncc(N5CCOCC5)nc4c3C#N)cc2OC)nc1 [Example 132, 6-((3-methoxy-4-((5-methoxypyridin-2-yl)methoxy)phenyl)amino)-3-morpholinoquinoxaline-5-carbonitrile] | > 10 | > 10 | > 50 |  | 0.3 to 1 | > 10
10 | < 0.1 |  | < 0.1 | > 1 | > 1 |  | COc1cc(Nc2ccc3ncc(N4CCOCC4)nc3c2C#N)ccc1OCc1ccc(C)s1 [Example 124, 6-((3-methoxy-4-((5-methylthiophen-2-yl)methoxy)phenyl)amino)-3-morpholinoquinoxaline-5-carbonitrile] | 0.3 to 1 | 1 to 10 | > 50 |  | < 0.3 | 1 to 10
11 | 0.1 to 0.3 |  | < 0.1 | > 1 | > 1 |  | COc1cc(Nc2ccc3ncc(N4CCOCC4)nc3c2C#N)ccc1OCc1ccc(CF)nc1 [Example 110, 6-((4-((6-(fluoromethyl)pyridin-3-yl)methoxy)-3-methoxyphenyl)amino)-3-morpholinoquinoxaline-5-carbonitrile] | 1 to 10 | > 10 | > 50 |  | < 0.3 | 1 to 10
12 | < 0.1 | 0.3 to 1 | < 0.1 |  | > 1 |  | COc1cc(Nc2ccc3ncc(N4CCOCC4)nc3c2C#N)ccc1OCc1cnn(CC2CC2)c1 [Example 141, 6-((4-((1-(cyclopropylmethyl)-1H-pyrazol-4-yl)methoxy)-3-methoxyphenyl)amino)-3-morpholinoquinoxaline-5-carbonitrile] | < 0.3 | > 10 | > 50 |  | < 0.3 | 1 to 10
13 | < 0.1 |  | < 0.1 | > 1 | > 1 |  | COc1cc(Nc2ccc3ncc(N(C)C)nc3c2C#N)ccc1OCc1ccc(C)nc1 [Example 133, 3-(dimethylamino)-6-((3-methoxy-4-((6-methylpyridin-3-yl)methoxy)phenyl)amino)quinoxaline-5-carbonitrile] | 0.3 to 1 | > 10 | > 50 |  | < 0.3 | > 10
14 | 0.3 to 1 |  | < 0.1 | > 1 | > 1 |  | COc1cc(Nc2ccc3ncc(N4CCOCC4)nc3c2C#N)ccc1OCc1cnn(CCF)c1 [Example 131, 6-((4-((1-(2-fluoroethyl)-1H-pyrazol-4-yl)methoxy)-3-methoxyphenyl)amino)-3-morpholinoquinoxaline-5-carbonitrile] | > 10 | > 10 | > 50 |  | < 0.3 | > 10
15 | 0.3 to 1 |  | < 0.1 | > 1 | > 1 |  | COc1cc(Nc2ccc3ncc(C4CCOCC4)nc3c2C#N)ccc1OCc1ccc(C)nc1 [Example 114, 6-((3-methoxy-4-((6-methylpyridin-3-yl)methoxy)phenyl)amino)-3-(tetrahydro-2H-pyran-4-yl)quinoxaline-5-carbonitrile] | 1 to 10 | > 10 | > 50 |  | 1 to 10 | 1 to 10
